Measurements reported in PubChem BioAssay (NCI).
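How tested: cells in 96-well plates exposed to compound for 48 hours at five concentrations. GI50 is the concentration that inhibits growth by half. TGI marks complete inhibition of growth.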

Legend:
Assay in all cases: NCI-60 cell line screen, 48 h
IGROV1 ovarian = test system: IGROV1 ovarian
A549 NSCLC = test system: A549 NSCLC
DU-145 prostate = test system: DU-145 prostate
SF-295 CNS = test system: SF-295 CNS
SK-OV-3 ovarian = test system: SK-OV-3 ovarian
CAKI-1 renal = test system: CAKI-1 renal
HCT-15 colon = test system: HCT-15 colon
HL-60(TB) leukemia = test system: HL-60(TB) leukemia
CCRF-CEM leukemia = test system: CCRF-CEM leukemia
RPMI-8226 leukemia = test system: RPMI-8226 leukemia

Structure (SMILES) | TGI (IGROV1 ovarian) [µM] | TGI (A549 NSCLC) [µM] | TGI (DU-145 prostate) [µM] | TGI (SF-295 CNS) [µM] | TGI (SK-OV-3 ovarian) [µM] | TGI (CAKI-1 renal) [µM] | TGI (HCT-15 colon) [µM] | TGI (HL-60(TB) leukemia) [µM] | TGI (CCRF-CEM leukemia) [µM] | TGI (RPMI-8226 leukemia) [µM] | GI50 (IGROV1 ovarian) [µM] | GI50 (SF-295 CNS) [µM] | GI50 (RPMI-8226 leukemia) [µM] | GI50 (HL-60(TB) leukemia) [µM] | GI50 (CCRF-CEM leukemia) [µM]
O=S(=O)(/N=C(\NO)Nc1ccc(Cl)cc1)c1cc2ccccc2s1 | 28.7 | 38.1 | 49.2 | 41 | 34.7 | 34.7 | 36 | 45.3 | 87.5 |  |  |  |  |  | 
CCCCCCCCCCCC[N+]12CC[N+](C)(CC1)CC2 | 11.8 | > 100 |  | > 100 | > 100 | 30.9 |  | 40.4 | 53.3 | 41.7 |  |  |  |  | 
NC(=O)/N=C/c1c(O)c2ccccc2oc1=O | > 100 |  |  | > 100 |  |  | > 100 | > 100 | > 100 | > 100 |  |  |  |  | 
CC#COS(=O)(=O)c1ccc(C)cc1 | > 100 | > 100 |  | > 100 | > 100 | > 100 | > 100 | 59.8 | > 100 | 60.2 |  |  |  |  | 
CN(C)CCCn1c(Cn2nc3ccccc3n2)nc2cc(C(F)(F)F)ccc21 | > 100 | > 100 | > 100 | > 100 | 60.9 | > 100 | > 100 | 16.5 | 39.5 |  |  |  |  |  | 
Cc1ccc(NC(=O)C2C3CCC(O3)C2C(=O)O)cc1 (stereo unspecified) | > 100 | > 100 |  | > 100 | > 100 | > 100 | > 65.3 | > 60.6 | > 75.5 | > 68.8 |  |  |  |  | 
CC(=O)OCC1OC(N=[N+]=[N-])C(OC(C)=O)C(OC(C)=O)C1OC1OC(COC(C)=O)C(OC(C)=O)C(OC(C)=O)C1OC(C)=O (stereo unspecified) | > 100 | > 100 |  | > 100 | > 100 | > 100 | > 100 | > 100 | > 100 | > 100 |  |  |  |  | 
COC(=O)C(=O)C(C(=O)OC)C(=O)C(=O)Nc1c(Cl)cc([N+](=O)[O-])cc1Cl (stereo unspecified) | > 100 | > 100 |  | > 100 | > 100 | > 100 | > 100 | > 100 |  | > 100 |  |  |  |  | 
COc1ccc([C@H]2CC3C(=O)N(c4ccc(OC)cc4)C(=O)C3c3[nH]c4ccccc4c32)cc1 (stereo partly specified) | > 100 | > 100 |  | 78.3 | > 100 | > 100 | > 100 |  | > 100 |  |  |  |  |  | 
COc1ccc(-c2nnc3n(C)c4ccccc4n3c2=O)cc1 | > 100 | > 100 | > 100 | 84.3 |  | > 100 | > 100 | > 100 | > 100 |  |  |  |  |  | 
Cn1c(=O)c2[nH]c(SC/C(=N/O)c3ccc(Br)cc3)nc2n(C)c1=O | 5.55 |  |  | 4.1 |  |  |  | > 100 | 57.1 | > 100 | 2.27 | 1.82 | 34.7 | 68.6 | 14.3
CSC(C1c2ccccc2N(C)c2[nH]c(=O)n(C)c(=O)c21)S(=O)(=O)c1ccc(C)cc1 (stereo unspecified) | > 100 | > 100 |  | > 100 | > 100 | > 100 | > 100 | > 100 | > 100 |  |  |  |  |  | 
O=S(=O)(c1ccccc1)c1ccc(-c2nc(-c3ccc4c(c3)Sc3ccccc3S4)cs2)cc1 |  | > 100 | > 100 | 47.4 | 41.9 | > 100 | > 100 | > 100 | > 100 | > 100 |  |  |  |  | 
COc1ccc2[nH]c3c(c2c1)CC(=O)N1CCC[C@H](C1)CC31OCCCO1 | > 100 | > 100 | > 100 | > 100 | > 100 | > 100 | > 100 |  | > 100 | > 100 |  |  |  |  | 
Brc1ccc(-c2cc3c(cc2C2SCCS2)OCO3)cc1 | > 100 | > 100 |  | > 100 | > 100 |  | > 100 | > 100 | > 100 |  |  |  |  |  | 
COc1ccc(C2=Nc3ccccc3N=C(SC)C2)cc1 | > 100 | > 100 |  | > 100 | > 100 | > 100 | > 100 | 43 | 42 |  |  |  |  |  | 
Cn1cc2c3ccccc3nc-2c2ccccc21 |  | 5.65 | 5.76 | 10.4 | 9.3 | 7.79 | 4.94 | 4.48 | 5.99 | 3.94 |  |  |  |  | 
CCCCCCCCCCCCOC1C(COCCN2CCCCC2)OC2OC(C)(C)OC21 (stereo unspecified) | 3.26 | 19.9 | 21.6 | 3.15 | 15.9 | 3.28 | 3.2 | 3.02 | 2.99 |  |  |  |  |  | 
COc1ccc(C2=NNC(=O)c3ccccc3N2c2nc(-c3cccs3)nc3cc(OC)c(OC)cc23)cc1 | > 100 | > 100 | > 100 | 9.9 | > 100 | 44.7 | > 100 |  |  | > 100 |  |  |  |  | 
Fc1ccc(C(OCCN2CCC3CCC(C2)N3C/C=C/c2cccs2)c2ccc(F)cc2)cc1 (stereo unspecified) | 21.6 | 24.3 | 26 | 22.4 | 26.3 | 23.1 | 16.6 |  | 26.7 | 1.78 |  |  |  |  | 
COc1cc2c[n+](C)c3c4cc(OC)c(OCc5ccccc5)cc4c(OCc4ccccc4)cc3c2cc1OC | 13.2 | > 88.8 | 45.7 | > 69.3 | > 52.8 | > 77.3 | > 100 |  | 72.4 | > 86 |  |  |  |  | 
COc1ccc(NC(=O)C(=O)Cc2ccc([N+](=O)[O-])c([N+](=O)[O-])c2CC(=O)C(=O)Nc2ccc(OC)cc2OC)c(OC)c1 | > 100 | > 100 |  | > 100 | > 100 | > 100 | > 100 | > 100 | > 100 | > 100 |  |  |  |  | 
